The text below walks through data of US20220133714A1, “EXTRACELLULAR MATRIX MODULATING AGENT” (KOWA COMPANY, LTD., priority 2019, published 2022).

The structures appear in SMILES notation.

The test system of experiment [1] is human fibroblasts. The note with it: cited from earlier work.
Experiment [2] concerns corneal endothelial cells. The note with it: cited from earlier work; for apoptosis and endothelial-mesenchymal transition (EMT) of corneal endothelial cells / cell adhesion, migration, proliferation and wound healing: in vitro and in vivo animal models.
The test system of experiment [3] is corneal endothelial cells of normal donors. The experiment is described as follows: Real-time PCR expression of FECD-associated matrix genes in normal donor endothelial-Descemet membrane specimens. The experiment is classed as cell-based, human. The following applies: normal EDM specimens, 24 h. The protocol:
FIG. 3 illustrates Relative expression of FECD-associated matrix genes in corneal endothelial cells of normal donors (n=6) without and with incubation in 10-100 μM K-115 for 24 h. Gene expression was analyzed by quantitative real-time PCR and normalized to GAPDH (*p<0.01).
(§1) Endothelial-Descemet membrane (EDM)-complexes from normal donor corneas and from FECD patients during DMEK surgery were prepared. EDM scrolls were dissected into two halves and incubated for 24-72 hours in CorneaMax storage medium (Eurobio) with or without K-115 (Selleck Chemicals). Gene expression analysis was performed using specific real-time PCR arrays for FECD-associated candidate genes as well as RT2 Profiler PCR Arrays (Quiagen). Array results were again validated using gene-specific real-time PCR assays. Protein expression analysis was performed by Western blotting.
(In qPCR the cycle at which signal appears reflects the starting amount.)

For experiment [4], the system named is corneal endothelial cells of FECD patients. Nature of the experiment: Real-time PCR expression of FECD-associated matrix genes in FECD patient endothelial-Descemet membrane specimens. The format is cell-based, human. The following applies: 30 μM, 24 hours, vs untreated controls. The protocol:
(§2) FIG. 4 illustrates Relative expression of FECD-associated matrix genes in corneal endothelial cells of FECD patients (n=20) without and with incubation in 30 μM K-115 for 24 h. Gene expression was analyzed by quantitative real-time PCR and normalized to GAPDH (*p<0.01, **p<0.001). Endothelial-Descemet membrane (EDM)-complexes from normal donor corneas and from FECD patients during DMEK surgery were prepared. EDM scrolls were dissected into two halves and incubated for 24-72 hours in CorneaMax storage medium (Eurobio) with or without K-115 (Selleck Chemicals). Gene expression analysis was performed using specific real-time PCR arrays for FECD-associated candidate genes as well as RT2 Profiler PCR Arrays (Quiagen). Array results were again validated using gene-specific real-time PCR assays. Protein expression analysis was performed by Western blotting. Then, gene expression levels in FECD specimens were analyzed, which were incubated in 30 μM K-115 for 24 hours. […] In order to identify additional matrix genes that may be transcriptionally regulated by K-115, gene expression profiling using a Human Extracellular Matrix and Adhesion Molecule PCR array were performed. With this approach, downregulation of fibronectin and collagen types I and III and detected additional downregulation of vitronectin and collagen types V and XIV in corneal endothelial cells from FECD patients (data not shown) were confirmed.

The test system of experiment [5] is corneal endothelial cells from FECD patients. The experiment is described as follows: Human Extracellular Matrix and Adhesion Molecule PCR array gene expression profiling. The format is cell-based. The note with it: data not shown. On the procedure:
as §2, with “Endothelial-Descemet” for “FIG. 4 illustrates Relative expression of FECD-associated matrix genes in corneal endothelial cells of FECD patients (n=20) without and with incubation in 30 μM K-115 for 24 h. Gene expression was analyzed by quantitative real-time PCR and normalized to GAPDH (*p<0.01, **p<0.001). Endothelial-Descemet”

For experiment [6], the system named is corneal endothelial cells of FECD patients. Nature of the experiment: Western blot protein expression in FECD specimens. The format is cell-based, human. The note with it: 30 μM, 72 hours of incubation. The protocol: FIG. 5 illustrates Western Blot analysis of fibronectin in corneal endothelial cells of FECD patients (n=4); equal loading of samples was verified by β-actin.
as §1
Then, gene expression levels in FECD specimens were analyzed, which were incubated in 30 μM K-115 for 24 hours. […] In order to identify additional matrix genes that may be transcriptionally regulated by K-115, gene expression profiling using a Human Extracellular Matrix and Adhesion Molecule PCR array were performed. With this approach, downregulation of fibronectin and collagen types I and III and detected additional downregulation of vitronectin and collagen types V and XIV in corneal endothelial cells from FECD patients (data not shown) were confirmed.
(In western blotting, separated proteins are transferred to a membrane and probed.)

As to `O=S(=O)(c1cccc2cnccc12)N1CCCNCC1` [Fasudil], the “expression of α-SMA, MLCP, LIMK1, p-cofilin, collagen I, and collagen III protein” value in experiment [1] is “attenuated”.

As to `C[C@@H](N)[C@H]1CC[C@H](C(=O)Nc2ccncc2)CC1` [Y-27632], in experiment [2], the “apoptosis and endothelial-mesenchymal transition (EMT) of corneal endothelial cells” value is “suppressed”; the “cell adhesion, migration, proliferation and wound healing” value (from here on “cell adhesion, migration”) is “stimulated”.

As for `C[C@H]1CNCCCN1S(=O)(=O)c1cccc2cncc(F)c12` [K-115, (S)-(−)-1-(4-fluoro-5-isoquinolinesulfonyl)-2-methyl-1,4-homopiperazine], in experiment [2], the EMT markers result was “downregulation”; the “endothelial cell proliferation and wound healing” value is listed as “stimulating”; the functional endothelial markers result was “upregulation”. Also, in experiment [3] (10-100 μM, normalized to GAPDH), the agrin gene expression entry is reported as “significantly downregulated”, the “collagen type I gene expression” value is listed as “significantly downregulated”, the “collagen type III gene expression” value is listed as “significantly downregulated” and the fibronectin gene expression result is listed as “significantly downregulated”. Further, in experiment [3] (10-100 μM, normalized to GAPDH), the “α-smooth muscle actin (α-SMA) gene expression” value is listed as “significantly downregulated” and the β-actin gene expression result is reported as “significantly downregulated”. Besides, the “most effective concentration for downregulation of matrix genes” value in experiment [3] (tested 10-100 μM) stood at 30 µM. Moreover, in experiment [4], the TGFBI gene expression result is recorded as “upregulated”, the agrin gene expression result is given as “significant reduction”, the “collagen type I gene expression” value was “significant reduction” and the “collagen type III gene expression” value is “significant reduction”. In experiment [4], the “collagen type XVI gene expression” value is recorded as “upregulated”, the fibronectin gene expression entry is on record as “significant reduction”, the “integrin a4 (ITGA4) gene expression” value was “upregulated” and the α-SMA gene expression entry is recorded as “significant reduction”. In experiment [5], the “collagen type I gene expression (PCR array)” value is given as “downregulation”, the “collagen type III gene expression (PCR array)” value is given as “downregulation”, the “collagen type V gene expression (PCR array)” value is reported as “downregulation” and the “collagen type XIV gene expression (PCR array)” value was “downregulation”. For the same compound, in experiment [5], the “fibronectin gene expression (PCR array)” value was “downregulation” and the “vitronectin gene expression (PCR array)” value is “downregulation”. In addition, the “collagen type III protein level” value in experiment [6] is on record as “significantly downregulated”. For the same compound, in experiment [6] (Western blot), the fibronectin protein level result was “significantly downregulated”.

As to `O=C(NCc1ccccc1)c1csc(Nc2ccncn2)n1` [Thiazovivin], in experiment [2], the “apoptosis and endothelial-mesenchymal transition (EMT) of corneal endothelial cells” value is “suppressed”; the “cell adhesion, migration” value is on record as “stimulated”.

For `Cc1cncc2cccc(S(=O)(=O)N3CCCNC[C@@H]3C)c12` [H-1152], in experiment [2], the “apoptosis and endothelial-mesenchymal transition (EMT) of corneal endothelial cells” value was “suppressed”; the “cell adhesion, migration” value is “stimulated”.
